Columns and labels:
Type in all cases: in vivo
[1] = test system: ticks (Haemaphysalis longicornis); test: Oral administration against dog-infested ticks; conditions: oral gelatin capsules, 20 mg/kg
Protocol: Each of the present hydrazide compounds (5) and (8) and Comparative compound (52) was filled into gelatin capsules, and forcibly and orally administered to a dog in a dose amount of 20 mg per 1 kg of the dog's body weight. This is referred to as a test group. On the other hand, gelatin capsules alone were orally administered to a placebo group.
(§1) Forty two (42) days later, 100 test ticks were deposited on each dog. Two (2) days after the deposit, the number of living ticks, which were infesting the dogs, was examined. When the examination was completed, all infested ticks were removed from the dogs. The infestation rate and control rate were calculated by the following formulae: […]
Method of calculating infestation rate and control rate at 44 days after the administration:
Infestation rate(%) at X days after administration=(number of living ticks at X days/number of ticks deposited)×100
Control rate(%) at X days after administration (infestation rate of placebo group at X days−infestation rate of test group at X days)/infestation rate of placebo group at X days[…]
(§2) In addition, if an infestation rate of a test group is higher than a placebo group, then the control rate is deemed to be 0%.

[2] = test system: cat fleas (Ctenocephalides felis); test: Dropping application against cat-infested cat fleas
Protocol: The previous day before dropping application, 50 test fleas (cat flea adults) were deposited on a cat. Before the dropping application, infested fleas were counted.
Each (0.375 g or 1.5 g) of the present hydrazide compounds (5) and (8) and Comparative compound (52) was dissolved in diethylene glycol monoethyl ether (6.0 g) to prepare a test solution. Said test solution was directly dropped on the skin of the neck and back of the cat while pushing aside fur thereon on at a rate of 0.1 ml per 1 kg of the cat's body weight (dose amount: 5 or 20 mg/kg). This is referred to as a test group. On the other hand, diethylene glycol monoethyl ether alone was applied dropwise to a placebo group.
Two (2) days after the application, the number of living fleas, which were infesting the cats, was examined. When the examination was completed, all infested fleas were removed from the cats.
(§3) Fourteen (14) days and 28 days later, 50 test fleas were re-deposited on each cat. Two (2) days after the re-deposit, the number of living fleas, which were infesting the cats, was examined. When the examination was completed, all infested fleas were removed from the cats. The infestation rate and control rate were calculated by the following formulae: […]
(§4) (i) Method of calculating infestation rate and control rate at the initial stage (2 days) after the application:
Infestation rate(%) at X days after application=(number of living fleas at X days/number of living fleas before application)×100
(§5) Control rate(%) at X days after application=(infestation rate of test group before application−infestation rate of test group at X days)/infestation rate of test group before application×100
(§6) (ii) Method of calculating infestation rate and control rate at 16 days and 30 days after the application:
Infestation rate(%) at X days after application−(number of living fleas at X days/number of fleas deposited)×100
(§7) Control rate(%) at X days after the application (infestation rate of placebo group at X days−infestation rate of test group at X days)/infestation rate of placebo group at X days×100
as §2

[3] = test system: ticks (Haemaphysalis longicornis); test: Pesticidal activity on ticks in filter paper test; conditions: 48 h, 100 mg/m^2, non-blood-fed young ticks, 2 days later
Protocol: Each (5 mg) of the present hydrazide compounds (1), (3) to (5), (8), (10) and (13) was dissolved in acetone (10 mL), and this acetone solution (1 mL) was uniformly applied onto one side of a filter paper (TOYO No. 2; 5×10 cm; the surface area of the filter paper was 50 cm^2, and thus the amount of the present hydrazide compound applied was 100 mg/m^2). After drying, said filter paper was folded, and the both sides of the paper were clipped to form a bag. Into this bag, test ticks (Haemaphysalis longicornis, non-blood-fed young ticks, 10 ticks/group) were added, and the opening was clipped to seal the bag. Two (2) days later, the number of dead ticks was examined and the mortality was calculated by the following formula:
Mortality(%)=100×(number of dead ticks/number of ticks tested)

[4] = test system: cat fleas (Ctenocephalides felis); test: Oral administration against cat-infested cat fleas; conditions: oral with cat food
Protocol: The previous day before oral administration, 50 test fleas (cat flea adults) were deposited on a cat. Before the oral administration, infested fleas were counted.
Each of the present hydrazide compounds (5) and (8) was mixed with a cat food, and orally administered to a cat in a dose amount of 5 or 20 mg per 1 kg of the cat's body weight. This is referred to as a test group. On the other hand, the cat food alone was fed to a placebo group.
Two (2) days after the administration, the number of living fleas, which were infesting the cats, was examined. When the examination was completed, all infested fleas were removed from the cats.
as §3, with “Forty two (42)” for “Fourteen (14) days and 28”
(i) Method of calculating infestation rate and control rate at the initial stage (2 days) after the administration:
Infestation rate(%) at X days after administration=(number of living fleas at X days/number of living fleas before administration)×100
Control rate(%) at X days after administration (infestation rate of test group before administration−infestation rate of test group at X days)/infestation rate of test group before administration×100
(ii) Method of calculating infestation rate and control rate at 44 days after the administration:
Infestation rate(%) at X days after administration=(number of living fleas at X days/number of fleas deposited)×100
Control rate(%) at X days after administration (infestation rate of placebo group at X days−infestation rate of test group at X days)/infestation rate of placebo group at X days×100
as §2

[5] = test system: cat fleas (Ctenocephalides felis); test: Pesticidal activity on cat fleas in filter paper test; conditions: 48 h
Protocol: Each (11.3 mg) of the present hydrazide compounds (5) and (8) was dissolved in acetone (5 mL), and this acetone solution ([…]) was uniformly applied onto one side of a filter paper (TOYO No. 2; diameter 3.8 cm; the surface area of the filter paper was 11.3 cm^2, and thus the amount of the present hydrazide compound applied was 400 mg/m^2). After drying, said filter paper was placed on the inside of the lid of a 100 mL vial container. Into the vial container, 20 cat flea adults were released and the lid was closed. The vial container was inverted to force the cat fleas to contact the filter paper. Two (2) days later, the number of dead fleas was examined and the mortality was calculated by the following formula:
(§8) Mortality(%)=100×(number of dead cat fleas/number of cat fleas tested)

[6] = test system: ticks (Haemaphysalis longicornis); test: Dropping application against dog-infested ticks; conditions: dog (beagle), 20 mg/kg
Protocol: The previous day before dropping application, 100 test ticks (Haemaphysalis longicornis, young ticks) were deposited on a dog (beagle). Before the dropping application, infested ticks were counted.
Each (1.5 g) of the present hydrazide compounds (5) and (8) was dissolved in diethylene glycol monoethyl ether (6.0 g) to prepare a test solution. Said test solution was directly dropped on the skin of the neck and back of the dog while pushing aside fur thereon at a rate of 0.1 ml per kg of the dog's body weight (dose amount: 20 mg/kg). This is referred to as a test group. On the other hand, diethylene glycol monoethyl ether alone was applied dropwise to a placebo group.
Two (2) days after the application, the number of living ticks, which were infesting the dogs, was examined. When the examination was completed, all infested ticks were removed from the dogs.
as §1, with “Fourteen (14) days and 28” for “Forty two (42)”, “re-deposited” for “deposited”, “re-deposit,” for “deposit,”
as §4
Infestation rate(%) at X days after application=(number of living ticks at X days/number of living ticks before application)×100
as §5, §6
Infestation rate(%) at X days after application=(number of living ticks at X days/number of ticks deposited)×100
as §7, §2

[7] = test system: cat fleas (Ctenocephalides felis); test: Dropping application against mouse-infested cat fleas; conditions: 0.5% w/v solution 200 μL dropwise along dorsal line, 2 days later
Protocol: The present hydrazide compound (8) (25 mg) was dissolved in propylene carbonate (5 mL) to prepare a 0.5% w/v solution. Said solution (200 μL) was applied dropwise along the dorsal line of a mouse with a pipette. To a control group, propylene carbonate (200 μL) alone was applied. Each application was repeated 3 times per group.
After the dropping application, 20 cat fleas were deposited on each mouse. Two (2) days later, the number of dead cat fleas was examined and the mortality was calculated by the following formula:
as §8

## CC(=O)NNc1cc(C2=NOC(c3cc(Cl)cc(Cl)c3)(C(F)(F)F)C2)ccc1Cl (stereo not drawn) [Comparative compound (52), N′-{5-[5-(3,5-dichlorophenyl)-5-trifluoromethyl-4,5-dihydroisoxazol-3-yl]-2-chlorophenyl}acetohydrazide, reference compound]
[1]
  Tick control rates (%) at 44 days after the administration: 74%
[2]; 5 mg/kg
  Flea control rates (%) at 2 days after the application: 25%
  Flea control rates (%) at 16 days after the application: 87%
  Flea control rates (%) at 30 days after the application: 58%

## O=C(CC(F)(F)F)NNc1cc(C2=NOC(c3cc(Cl)cc(Cl)c3)(C(F)(F)F)C2)ccc1F (stereo not drawn) [(3), N′-{5-[5-(3,5-dichlorophenyl)-5-trifluoromethyl-4,5-dihydroisoxazol-3-yl]-2-fluorophenyl}-3,3,3-trifluoropropionohydrazide]
[3]
  mortality at 100 mg/m2: ≥ 90%

## O=C(CC(F)(F)F)NNc1cccc(C2=NOC(c3cc(Cl)cc(Cl)c3)(C(F)(F)F)C2)c1 (stereo not drawn) [(1), N′-{3-[5-(3,5-dichlorophenyl)-5-trifluoromethyl-4,5-dihydroisoxazol-3-yl]phenyl}-3,3,3-trifluoropropionohydrazide]
[3]
  mortality at 100 mg/m2: ≥ 90%

## CN(NC(=O)CCC(F)(F)F)c1cc(C2=NOC(c3cc(Cl)cc(Cl)c3)(C(F)(F)F)C2)ccc1Cl (stereo not drawn) [Compound (8), N′-methyl-N′-{2-chloro-5-[5-(3,5-dichlorophenyl)-5-trifluoromethyl-4,5-dihydroisoxazol-3-yl]phenyl}-4,4,4-trifluorobutyrohydrazide]
[4]; 5 mg/kg
  Flea control rates (%) at 2 days after the administration: 100%
  Flea control rates (%) at 44 days after the administration: 90%
[4]; 20 mg/kg
  Flea control rates (%) at 2 days after the administration: 100%
  Flea control rates (%) at 44 days after the administration: 100%
[5]
  mortality at 400 mg/m2: ≥ 90%
[1]
  Tick control rates (%) at 44 days after the administration: 93%
[6]
  Tick control rates (%) at 2 days after the application: 31%
  Tick control rates (%) at 16 days after the application: 100%
  Tick control rates (%) at 30 days after the application: 100%
[2]; 5 mg/kg
  Flea control rates (%) at 2 days after the application: 100%
  Flea control rates (%) at 16 days after the application: 100%
  Flea control rates (%) at 30 days after the application: 97%
[2]; 20 mg/kg
  Flea control rates (%) at 2 days after the application: 100%
  Flea control rates (%) at 16 days after the application: 100%
  Flea control rates (%) at 30 days after the application: 100%
[7]
  Mortality: ≥ 70%

## O=C(CCCC(F)(F)F)NNc1cc(C2=NOC(c3cc(Cl)cc(Cl)c3)(C(F)(F)F)C2)ccc1Cl (stereo not drawn) [(10), N′-{2-chloro-5-[5-(3,5-dichlorophenyl)-5-trifluoromethyl-4,5-dihydroisoxazol-3-yl]phenyl}-5,5,5-trifluoropentanohydrazide]
[3]
  mortality at 100 mg/m2: ≥ 90%

## CCc1ccc(C2=NOC(c3cc(Cl)cc(Cl)c3)(C(F)(F)F)C2)cc1NNC(=O)CC(F)(F)F (stereo not drawn) [(13), N′-{5-[5-(3,5-dichlorophenyl)-5-trifluoromethyl-4,5-dihydroisoxazol-3-yl]-2-ethylphenyl}-3,3,3-propionohydrazide]
[3]
  mortality at 100 mg/m2: ≥ 90%

## O=C(CCC(F)(F)F)NNc1cc(C2=NOC(c3cc(Cl)cc(Cl)c3)(C(F)(F)F)C2)ccc1Cl (stereo not drawn) [Compound (5), N′-{5-[5-(3,5-dichlorophenyl)-5-trifluoromethyl-4,5-dihydroisoxazol-3-yl]-2-chlorophenyl}-4,4,4-trifluorobutyrohydrazide]
[4]; 5 mg/kg
  Flea control rates (%) at 2 days after the administration: 100%
  Flea control rates (%) at 44 days after the administration: 81%
[4]; 20 mg/kg
  Flea control rates (%) at 2 days after the administration: 100%
  Flea control rates (%) at 44 days after the administration: 100%
[5]
  mortality at 400 mg/m2: ≥ 90%
[1]
  Tick control rates (%) at 44 days after the administration: 89%
[6]
  Tick control rates (%) at 2 days after the application: 51%
  Tick control rates (%) at 16 days after the application: 100%
  Tick control rates (%) at 30 days after the application: 100%
[2]; 5 mg/kg
  Flea control rates (%) at 2 days after the application: 83%
  Flea control rates (%) at 16 days after the application: 100%
  Flea control rates (%) at 30 days after the application: 97%
[2]; 20 mg/kg
  Flea control rates (%) at 2 days after the application: 100%
  Flea control rates (%) at 16 days after the application: 100%
  Flea control rates (%) at 30 days after the application: 100%

From US20120029038A1, “ANIMAL ECTOPARASITE-CONTROLLING AGENT” (SUMITOMO CHEMICAL COMPANY, LIMITED, priority 2010, published 2012)
